# In patent publication US8088815B2, “Spiroindolinone pyrrolidines” (Hoffman-La Roche Inc., priority 2009, dated 2012):
# pIC50: −log10 of the molar value.
# Biological target: interaction between p53 and MDM2 proteins (Homo sapiens, UniProt Q00987)
# Assay: HTRF assay of inhibition of the p53-MDM2 interaction (GST-MDM2 / biotinylated p53 peptide)
# Assay type: binding
# Settings: recombinant GST-tagged MDM2 and biotinylated p53 peptide, bsa:0.02%
# Chain of interaction between p53 and MDM2 proteins (Q00987 whole entry): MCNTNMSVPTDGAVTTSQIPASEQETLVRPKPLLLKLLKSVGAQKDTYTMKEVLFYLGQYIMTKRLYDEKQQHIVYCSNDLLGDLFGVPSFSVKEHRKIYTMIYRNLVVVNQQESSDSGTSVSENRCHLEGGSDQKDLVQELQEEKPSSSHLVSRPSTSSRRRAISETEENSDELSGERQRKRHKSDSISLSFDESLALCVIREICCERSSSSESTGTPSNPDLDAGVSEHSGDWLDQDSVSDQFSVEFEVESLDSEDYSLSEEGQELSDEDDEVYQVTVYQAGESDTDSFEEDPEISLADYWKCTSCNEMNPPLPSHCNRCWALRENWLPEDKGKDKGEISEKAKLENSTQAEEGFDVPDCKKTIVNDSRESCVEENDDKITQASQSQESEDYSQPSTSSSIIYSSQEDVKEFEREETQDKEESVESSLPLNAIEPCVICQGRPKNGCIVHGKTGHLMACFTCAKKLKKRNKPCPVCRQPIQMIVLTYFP
row,Structure (SMILES),pIC50
1,"COc1cnccc1NC(=O)[C@@H]1N[C@@H](CC(C)(C)C)[C@@]2(C(=O)Nc3cc(Cl)ccc32)[C@H]1c1cccc(Cl)c1F (racemic) [Example 162, rac-(2′S,3′R,4′S,5′R)-6-chloro-4′-(3-chloro-2-fluoro-phenyl)-2′-(2,2-dimethyl-propyl)-2-oxo-1,2-dihydro-spiro[indole-3,3′-pyrrolidine]-5′-carboxylic acid (3-methoxy-pyridin-4-yl)-amide]",7.72
2,"COc1cc(N(C)C)ccc1NC(=O)[C@@H]1N[C@@H](CC(C)(C)C)[C@@]2(C(=O)Nc3cc(Cl)ccc32)[C@H]1c1cccc(Cl)c1F (racemic) [Example 164, rac-(2′S,3′R,4′S,5′R)-6-chloro-4′-(3-chloro-2-fluoro-phenyl)-2′-(2,2-dimethyl-propyl)-2-oxo-1,2-dihydro-spiro[indole-3,3′-pyrrolidine]-5′-carboxylic acid (4-dimethylamino-2-methoxy-phenyl)-amide]",7.74
3,"CNc1cc(C(=O)OC)ccc1NC(=O)[C@@H]1N[C@@H](CC(C)(C)C)[C@@]2(C(=O)Nc3cc(Cl)ccc32)[C@H]1c1cccc(Cl)c1F (racemic) [Example 166, rac-4-{[(2′S,3′R,4′S,5′R)-6-chloro-4′-(3-chloro-2-fluoro-phenyl)-2′-(2,2-dimethyl-propyl)-2-oxo-1,2-dihydro-spiro[indole-3,3′-pyrrolidine]-5′-carbonyl]amino}-3-methylamino-benzoic acid methyl ester]",7.60
4,"CC(C)(C)C[C@@H]1N[C@@H](C(=O)Nc2ccc(C#N)cc2)[C@H](c2cccc(Cl)c2F)[C@]12C(=O)Nc1c2ccc(Cl)c1F (racemic) [Example 175, rac-(2′S,3′R,4′S,5′R)-6-chloro-4′-(3-chloro-2-fluoro-phenyl)-2′-(2,2-dimethyl-propyl)-7-fluoro-2-oxo-1,2-dihydro-spiro[indole-3,3′-pyrrolidine]-5′-carboxylic acid (4-cyano-phenyl)-amide]",7.40
5,"CC(C)(C)C[C@@H]1N[C@@H](C(=O)Nc2ccc(C(N)=O)cc2)[C@H](c2cccc(Cl)c2F)[C@]12C(=O)Nc1c2ccc(Cl)c1F (racemic) [Example 176, rac-(2′S,3′R,4′S,5′R)-6-chloro-4′-(3-chloro-2-fluoro-phenyl)-2′-(2,2-dimethyl-propyl)-7-fluoro-2-oxo-1,2-dihydro-spiro[indole-3,3′-pyrrolidine]-5′-carboxylic acid (4-carbamoyl-phenyl)-amide]",7.74
6,"COc1cc(C#N)ccc1NC(=O)[C@@H]1N[C@@H](CC(C)(C)C)[C@@]2(C(=O)Nc3c2ccc(Cl)c3F)[C@H]1c1cccc(Cl)c1F (racemic) [Example 177, rac-(2′S,3′R,4′S,5′R)-6-chloro-4′-(3-chloro-2-fluoro-phenyl)-2′-(2,2-dimethyl-propyl)-7-fluoro-2-oxo-1,2-dihydro-spiro[indole-3,3′-pyrrolidine]-5′-carboxylic acid (4-cyano-2-methoxy-phenyl)-amide]",7.68
7,"COc1cc(OCCO)ccc1NC(=O)[C@@H]1N[C@@H](CC(C)(C)C)[C@@]2(C(=O)Nc3c2ccc(Cl)c3F)[C@H]1c1cccc(Cl)c1F (racemic) [Example 179, rac-(2′S,3′R,4′S,5′R)-6-chloro-4′-(3-chloro-2-fluoro-phenyl)-2′-(2,2-dimethyl-propyl)-7-fluoro-2-oxo-1,2-dihydro-spiro[indole-3,3′-pyrrolidine]-5′-carboxylic acid [4-(2-hydroxy-ethoxy)-2-methoxy-phenyl]-amide]",7.41

# These reach a higher pIC50. Values come first.
row,pIC50,Structure (SMILES)
1,7.77,"CC(C)(C)C[C@@H]1N[C@@H](C(=O)Nc2ccc(C#N)nc2)[C@H](c2cccc(Cl)c2F)[C@]12C(=O)Nc1cc(Cl)ccc12 (racemic) [Example 182, rac-(2′S,3′R,4′S,5′R)-6-chloro-4′-(3-chloro-2-fluoro-phenyl)-2′-(2,2-dimethyl-propyl)-2-oxo-1,2-dihydro-spiro[indole-3,3′-pyrrolidine]-5′-carboxylic acid (6-cyano-pyridin-3-yl)-amide]"
2,7.80,"CC(C)(C)C[C@@H]1N[C@@H](C(=O)Nc2cnc(C(N)=O)nc2)[C@H](c2cccc(Cl)c2F)[C@]12C(=O)Nc1cc(Cl)ccc12 (racemic) [Example 185, rac-(2′S,3′R,4′S,5′R)-6-chloro-4′-(3-chloro-2-fluoro-phenyl)-2′-(2,2-dimethyl-propyl)-2-oxo-1,2-dihydro-spiro[indole-3,3′-pyrrolidine]-5′-carboxylic acid (2-carbamoyl-pyrimidin-5-yl)-amide]"
3,7.82,"COc1cc(C(N)=O)ccc1NC(=O)[C@@H]1N[C@@H](CC(C)(C)C)[C@@]2(C(=O)Nc3c2ccc(Cl)c3F)[C@H]1c1cccc(Cl)c1F (racemic) [Example 178, rac-(2′S,3′R,4′S,5′R)-6-chloro-4′-(3-chloro-2-fluoro-phenyl)-2′-(2,2-dimethyl-propyl)-7-fluoro-2-oxo-1,2-dihydro-spiro[indole-3,3′-pyrrolidine]-5′-carboxylic acid (4-carbamoyl-2-methoxy-phenyl)-amide]"
4,7.82,"CC(C)(C)C[C@@H]1N[C@@H](C(=O)Nc2ccc(C#N)s2)[C@H](c2cccc(Cl)c2F)[C@]12C(=O)Nc1cc(Cl)ccc12 (racemic) [Example 187, rac-(2′S,3′R,4′S,5′R)-6-chloro-4′-(3-chloro-2-fluoro-phenyl)-2′-(2,2-dimethyl-propyl)-2-oxo-1,2-dihydro-spiro[indole-3,3′-pyrrolidine]-5′-carboxylic acid (5-cyano-thiophen-2-yl)-amide]"
5,7.89,"COc1cc(NS(C)(=O)=O)ccc1NC(=O)[C@@H]1N[C@@H](CC(C)(C)C)[C@@]2(C(=O)Nc3cc(Cl)ccc32)[C@H]1c1cccc(Cl)c1F (racemic) [Example 155, rac-(2′S,3′R,4′S,5′R)-6-chloro-4′-(3-chloro-2-fluoro-phenyl)-2′-(2,2-dimethyl-propyl)-2-oxo-1,2-dihydro-spiro[indole-3,3′-pyrrolidine]-5′-carboxylic acid (4-methanesulfonylamino-2-methoxy-phenyl)-amide]"
6,8.00,"CNc1cc(C(=O)O)ccc1NC(=O)[C@@H]1N[C@@H](CC(C)(C)C)[C@@]2(C(=O)Nc3cc(Cl)ccc32)[C@H]1c1cccc(Cl)c1F (racemic) [Example 167, rac-4-{[(2′S,3′R,4′S,5′R)-6-chloro-4′-(3-chloro-2-fluoro-phenyl)-2′-(2,2-dimethyl-propyl)-2-oxo-1,2-dihydro-spiro[indole-3,3′-pyrrolidine]-5′-carbonyl]-amino}-3-methylamino-benzoic acid]"
7,8.10,"CC(C)(C)C[C@@H]1N[C@@H](C(=O)Nc2ccc(C(N)=O)s2)[C@H](c2cccc(Cl)c2F)[C@]12C(=O)Nc1cc(Cl)ccc12 (racemic) [Example 188, rac-(2′S,3′R,4′S,5′R)-6-chloro-4′-(3-chloro-2-fluoro-phenyl)-2′-(2,2-dimethyl-propyl)-2-oxo-1,2-dihydro-spiro[indole-3,3′-pyrrolidine]-5′-carboxylic acid (5-carbamoyl-thiophen-2-yl)-amide]"
8,8.15,"CC(C)(C)C[C@@H]1N[C@@H](C(=O)Nc2ccc(C(N)=O)nc2)[C@H](c2cccc(Cl)c2F)[C@]12C(=O)Nc1cc(Cl)ccc12 (racemic) [Example 183, rac-(2′S,3′R,4′S,5′R)-6-chloro-4′-(3-chloro-2-fluoro-phenyl)-2′-(2,2-dimethyl-propyl)-2-oxo-1,2-dihydro-spiro[indole-3,3′-pyrrolidine]-5′-carboxylic acid (6-carbamoyl-pyridin-3-yl)-amide]"
